# What was measured:
# E. coli = test: Light-activated killing of bacteria (E. coli); type: cell-based; details: for light-activated killing of bacteria: E. coli; for anti-bacterial activity using cool white light: LuzChem "cool white" light
# Description: No killing of bacteria in the dark has yet been observed.
# Compound E was applied to a wet wipe surface and also to the surface of a filter for filtration of air or water.
# mammal models = details: in vivo
SMILES,light-activated killing of bacteria (E. coli),anti-bacterial activity using cool white light (E. coli),relative reactivity in bacterial killing (E. coli; light-activated),light-activated killing on surfaces (E. coli; applied to wet wipe surface and filter surface for air or water),killing of bacteria in the dark (E. coli; dark),activity when surface immersed in E. Coli suspension (E. coli; wet wipe / filter surface immersed in suspension of E. Coli),toxicity against mammal models (mammal models)
Cn1cc[n+](CCCOc2ccc(C#Cc3ccc(C#Cc4ccc(OCCC[n+]5ccn(C)c5)cc4)cc3)cc2)c1 [Compound D],excellent,excellent anti-bacterial activity,more reactive than Compound E,–,–,–,–
Cn1cc[n+](CCCCc2ccc(C#Cc3ccc(C#Cc4ccc(OCCC[n+]5ccn(C)c5)cc4)s3)cc2)c1 [Compound E],excellent,excellent anti-bacterial activity,–,strong light-activated killing,No killing,activity was retained,no toxicity
